Measured values: PubChem BioAssay (NCI)
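The compound was tested at five concentrations on cells cultured in 96-well plates, with a 48-hour exposure period. Abbreviation: GI50, concentration required for 50% inhibition of growth. TGI: concentration producing complete growth inhibition.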

Tests used:
Assay in all cases: inhibition of tumour cell growth, NCI panel, 48 h
786-0 renal = tested on: 786-0 renal
A498 renal = tested on: A498 renal
A549 NSCLC = tested on: A549 NSCLC
ACHN renal = tested on: ACHN renal
BT-549 breast = tested on: BT-549 breast
CAKI-1 renal = tested on: CAKI-1 renal
CCRF-CEM leukemia = tested on: CCRF-CEM leukemia
COLO 205 colon = tested on: COLO 205 colon
DU-145 prostate = tested on: DU-145 prostate
EKVX NSCLC = tested on: EKVX NSCLC
HCC-2998 colon = tested on: HCC-2998 colon
HCT-116 colon = tested on: HCT-116 colon
HCT-15 colon = tested on: HCT-15 colon
HL-60(TB) leukemia = tested on: HL-60(TB) leukemia
HOP-62 NSCLC = tested on: HOP-62 NSCLC
HOP-92 NSCLC = tested on: HOP-92 NSCLC
HS 578T breast = tested on: HS 578T breast
HT29 colon = tested on: HT29 colon
IGROV1 ovarian = tested on: IGROV1 ovarian
K-562 leukemia = tested on: K-562 leukemia
KM12 colon = tested on: KM12 colon
LOX IMVI melanoma = tested on: LOX IMVI melanoma
M14 melanoma = tested on: M14 melanoma
MALME-3M melanoma = tested on: MALME-3M melanoma
MCF7 breast = tested on: MCF7 breast
MDA-MB-231 breast = tested on: MDA-MB-231 breast
MDA-MB-435 = tested on: MDA-MB-435
MOLT-4 leukemia = tested on: MOLT-4 leukemia
NCI-H226 lung = tested on: NCI-H226 lung
NCI-H23 lung = tested on: NCI-H23 lung
NCI-H460 lung = tested on: NCI-H460 lung
NCI-H522 lung = tested on: NCI-H522 lung
NCI/ADR-RES ovarian = tested on: NCI/ADR-RES ovarian
OVCAR-3 ovarian = tested on: OVCAR-3 ovarian
OVCAR-4 ovarian = tested on: OVCAR-4 ovarian
OVCAR-5 ovarian = tested on: OVCAR-5 ovarian
OVCAR-8 ovarian = tested on: OVCAR-8 ovarian
PC-3 prostate = tested on: PC-3 prostate
RPMI-8226 leukemia = tested on: RPMI-8226 leukemia
RXF 393 renal = tested on: RXF 393 renal
SF-268 CNS = tested on: SF-268 CNS
SF-295 CNS = tested on: SF-295 CNS
SF-539 CNS = tested on: SF-539 CNS
SK-MEL-2 melanoma = tested on: SK-MEL-2 melanoma
SK-MEL-28 melanoma = tested on: SK-MEL-28 melanoma
SK-MEL-5 melanoma = tested on: SK-MEL-5 melanoma
SK-OV-3 ovarian = tested on: SK-OV-3 ovarian
SN12C renal = tested on: SN12C renal
SNB-19 CNS = tested on: SNB-19 CNS
SNB-75 CNS = tested on: SNB-75 CNS
SW-620 colon = tested on: SW-620 colon
T-47D breast = tested on: T-47D breast
TK-10 renal = tested on: TK-10 renal
U251 CNS = tested on: U251 CNS
UACC-257 melanoma = tested on: UACC-257 melanoma
UACC-62 melanoma = tested on: UACC-62 melanoma
UO-31 renal = tested on: UO-31 renal

Work on `COc1cc2c3c(n(CCCN4CCOCC4)c(=O)c2cc1OC)-c1cc2c(cc1C3=O)OCO2` yielded a GI50 (786-0 renal) of 0.689 µM, a TGI (786-0 renal) of 20.3 µM and a GI50 (A498 renal) of 7.53 µM. For the same compound, the TGI (A498 renal) was 54 µM, the GI50 (A549 NSCLC) was 3.43 µM and the TGI (A549 NSCLC) was over 100 µM. For the same compound, the GI50 (ACHN renal) was 0.5 µM, the TGI (ACHN renal) was over 100 µM and the GI50 (BT-549 breast) was 12.6 µM. It also gave a TGI (BT-549 breast) of over 100 µM, a GI50 (CAKI-1 renal) of 0.52 µM and a TGI (CAKI-1 renal) of 14.6 µM. The GI50 (CCRF-CEM leukemia) was 0.0934 µM, the TGI (CCRF-CEM leukemia) was 3.34 µM and the GI50 (COLO 205 colon) was 40.4 µM. For the same compound, the TGI (COLO 205 colon) was over 100 µM, the GI50 (DU-145 prostate) was 0.612 µM and the TGI (DU-145 prostate) was over 21.6 µM. For the same compound, the GI50 (EKVX NSCLC) was 50.9 µM, the TGI (EKVX NSCLC) was over 100 µM and the GI50 (HCC-2998 colon) was 10.7 µM. It also gave a TGI (HCC-2998 colon) of 65.4 µM, a GI50 (HCT-116 colon) of 1.8 µM and a TGI (HCT-116 colon) of 17.4 µM. For the same compound, the GI50 (HCT-15 colon) was 17.4 µM, the TGI (HCT-15 colon) was over 100 µM and the GI50 (HL-60(TB) leukemia) was 3.57 µM. It also gave a TGI (HL-60(TB) leukemia) of over 47 µM, a GI50 (HOP-62 NSCLC) of 1.86 µM and a TGI (HOP-62 NSCLC) of 55.7 µM. For the same compound, the GI50 (HOP-92 NSCLC) was 3.21 µM, the TGI (HOP-92 NSCLC) was over 91.5 µM and the GI50 (HS 578T breast) was 71.3 µM. For the same compound, the TGI (HS 578T breast) was over 100 µM, the GI50 (HT29 colon) was 5.62 µM and the TGI (HT29 colon) was over 67 µM. For the same compound, the GI50 (IGROV1 ovarian) was over 61 µM, the TGI (IGROV1 ovarian) was over 100 µM and the GI50 (K-562 leukemia) was 4.54 µM. The TGI (K-562 leukemia) was over 100 µM, the GI50 (KM12 colon) was 32.4 µM and the TGI (KM12 colon) was over 100 µM. For the same compound, the TGI (LOX IMVI melanoma) was over 35 µM, the GI50 (M14 melanoma) was 0.9 µM and the TGI (M14 melanoma) was 22.2 µM. The GI50 (MALME-3M melanoma) was 6.6 µM, the TGI (MALME-3M melanoma) was 84.5 µM and the GI50 (MCF7 breast) was 0.368 µM. The TGI (MCF7 breast) was over 36.3 µM, the GI50 (MDA-MB-231 breast) was 3.92 µM and the GI50 (MDA-MB-435) was 28 µM. It also gave a TGI (MDA-MB-435) of over 84.4 µM, a GI50 (MOLT-4 leukemia) of 0.0841 µM and a TGI (MOLT-4 leukemia) of 1.81 µM. It also gave a GI50 (NCI-H226 lung) of 4.6 µM, a TGI (NCI-H226 lung) of over 81.8 µM and a GI50 (NCI-H23 lung) of 1.97 µM. It also gave a TGI (NCI-H23 lung) of 27.2 µM, a GI50 (NCI-H460 lung) of 0.277 µM and a TGI (NCI-H460 lung) of over 100 µM. It also gave a GI50 (NCI-H522 lung) of 3.97 µM, a TGI (NCI-H522 lung) of over 100 µM and a GI50 (NCI/ADR-RES ovarian) of 1.57 µM. For the same compound, the TGI (NCI/ADR-RES ovarian) was 27.1 µM, the GI50 (OVCAR-3 ovarian) was 15.6 µM and the TGI (OVCAR-3 ovarian) was over 50.7 µM. It also gave a GI50 (OVCAR-4 ovarian) of 51 µM, a TGI (OVCAR-4 ovarian) of over 100 µM and a GI50 (OVCAR-5 ovarian) of 67.5 µM. It also gave a TGI (OVCAR-5 ovarian) of over 100 µM, a GI50 (OVCAR-8 ovarian) of 3.62 µM and a TGI (OVCAR-8 ovarian) of over 100 µM. The GI50 (PC-3 prostate) was 18.7 µM, the TGI (PC-3 prostate) was over 100 µM and the GI50 (RPMI-8226 leukemia) was 0.608 µM. It also gave a TGI (RPMI-8226 leukemia) of 16.8 µM, a TGI (RXF 393 renal) of over 66.6 µM and a GI50 (SF-268 CNS) of 0.954 µM. For the same compound, the TGI (SF-268 CNS) was over 100 µM, the GI50 (SF-295 CNS) was 0.137 µM and the TGI (SF-295 CNS) was over 38.8 µM. It also gave a GI50 (SF-539 CNS) of 0.165 µM, a TGI (SF-539 CNS) of 2.37 µM and a GI50 (SK-MEL-2 melanoma) of over 100 µM. It also gave a TGI (SK-MEL-2 melanoma) of over 100 µM, a GI50 (SK-MEL-28 melanoma) of over 76.9 µM and a TGI (SK-MEL-28 melanoma) of over 100 µM. The GI50 (SK-MEL-5 melanoma) was 1.34 µM, the TGI (SK-MEL-5 melanoma) was 12.2 µM and the GI50 (SK-OV-3 ovarian) was over 77.6 µM. It also gave a TGI (SK-OV-3 ovarian) of over 100 µM, a GI50 (SN12C renal) of 0.821 µM and a TGI (SN12C renal) of over 100 µM. It also gave a GI50 (SNB-19 CNS) of over 38.6 µM, a TGI (SNB-19 CNS) of over 100 µM and a GI50 (SNB-75 CNS) of 8.29 µM. For the same compound, the TGI (SNB-75 CNS) was over 100 µM, the GI50 (SW-620 colon) was 8.94 µM and the TGI (SW-620 colon) was over 100 µM. It also gave a GI50 (T-47D breast) of over 50.8 µM, a TGI (T-47D breast) of over 100 µM and a GI50 (TK-10 renal) of 34.6 µM. For the same compound, the TGI (TK-10 renal) was over 94.3 µM, the GI50 (U251 CNS) was 3.56 µM and the TGI (U251 CNS) was over 91.6 µM. It also gave a GI50 (UACC-257 melanoma) of over 51.5 µM, a TGI (UACC-257 melanoma) of over 100 µM and a GI50 (UACC-62 melanoma) of 0.193 µM. The TGI (UACC-62 melanoma) was 2.29 µM, the GI50 (UO-31 renal) was 5.87 µM and the TGI (UO-31 renal) was over 100 µM.
